In patent publication US11578087B2, “Oxaborole esters and uses thereof” (priority 2016, dated 2023):
Like-named read-outs stand apart in the source and are kept apart here.

Experiments:
[1] = system: IL3000 T. congolense (drug sensitive) strain; test: In vitro Alamar Blue 72 h drug sensitivity assay for T. congolense; format: cell-based, Trypanosoma congolense; conditions: bloodstream form, 69 h + 3 h Resazurin, 34° C., read-out: IC50: I Org. Growth T. congolense 3 d
Experimental: Example 252. In Vitro Alamar Blue 72 h Drug Sensitivity Assay for T. congolense
Compounds were tested in vitro for chemotherapeutic potency against the IL3000 T. congolense (drug sensitive) strain, using the Alamar Blue assay with several modifications. Test compounds were prepared as 10 mg/mL DMSO stocks for each assay run. Compounds were assayed in at least three separate, independent test runs and an 11-point dilution curve was used to determine the IC50 values. Bloodstream form trypanosomes were supported in HMI media containing 20% bovine serum and were incubated with test compounds for 69 h at 34° C. in a humidified atmosphere containing 5% CO2. Thereafter, 10 μL of Resazurin dye (12.5 mg in 100 mL of phosphate buffered saline, Sigma-Aldrich, Buchs, Switzerland) were added for an additional 3 h. Plates were then read using a fluorescent plate reader (Spectramax, Gemini XS, Bucher Biotec, Basel, Switzerland) using an excitation wavelength of 536 nm and an emission wavelength of 588 nm. Data points were averaged to generate sigmoidal dose-response curves and IC50 values were determined using Softmax Pro 5.2 software.

[2] = system: T. cruzi amastigote (Td Tomato-modified) in Vero cells; test: In vitro IC50 measurement of T. cruzi amastigote killing using Td Tomato-modified T. cruzi; format: cell-based; conditions: Trypanosoma cruzi, 72 h, fluorescence, read-out: IC50: I Org. amastigote Growth T. cruzi 3 d
Experimental: Example 254. In Vitro IC50 Measurement of T. cruzi Amastigote Killing Using Td Tomato-Modified T. cruzi
The T. cruzi parasites used in this assay were genetically modified to express Td Tomato fluorescent protein. Vero cells (African green monkey kidney epithelial cells) were harvested from continuous cultures using trypsin and added to the inner 60 wells of 96-well Greiner Bio One plates (plate catalog #655090) at 200 ul/well of […]. Cells were allowed to adhere for 1 h before infection with T. cruzi. T. cruzi for infection were harvested from previously-infected Vero cells, washed, pelleted and resuspended at 5×10^6/mL. 50 uL of parasites were added to each well containing Vero cells. Compounds were prepared from 5 mM stock concentrations in DMSO to final concentrations in wells ranging from 5 uM to 5 nM. Wells were provided for negative controls, lacking compounds. Plates were placed into a 37° C. incubator for 20 min, then a “Day 0” reading was taken on a Synergy H4 plate reader to record initial fluorescence levels, at 544 (excitation) and 612 nm (emission). 96-well plates were placed in Tupperware containers with wet paper towels and incubated at 37° C. incubator for 72 h. After 72 h plates were reread (Day 3 reading) and data analyzed using Excel and/or Graphpad software. Day 0 fluorescence was subtracted from Day 3 to remove input parasite fluorescence. Growth curves are generated and 50% and 90% inhibitory concentrations are determined by nonlinear regression analysis.

Row | SMILES | IC50 ([1]; Trypanosoma congolense, 72 h) | IC50 [2] | further results
1 | NC(=O)CC[C@H](NC(=O)c1ccc2c(c1)B(O)OC2)C(=O)OCc1ccccc1 [Example 6-011, Benzyl (1-hydroxy-1,3-dihydrobenzo[c][1,2]oxaborole-6-carbonyl)-L-glutaminate] | 10 to 5000 nM | – | –
2 | Cc1c(C(=O)N[C@H](C(=O)OCc2ccc(C(=O)N(C)CCN(C)C)cc2)C(C)C)ccc2c1B(O)OC2 [Example 6-106, 4-((2-(Dimethylamino)ethyl)(methyl)carbamoyl)benzyl (1-hydroxy-7-methyl-1,3-dihydrobenzo[c][1,2]oxaborole-6-carbonyl)-L-valinate] | – | ≥ 1000 nM | –
3 | Cc1c(C(=O)N[C@H](C(=O)OCc2ccc(OCCN3CCCC3)cc2)C(C)C)ccc2c1B(O)OC2 [Example 6-163, 4-(2-(Pyrrolidin-1-yl)ethoxy)benzyl (1-hydroxy-7-methyl-1,3-dihydrobenzo[c][1,2]oxaborole-6-carbonyl)-L-valinate] | < 0.5 nM | – | –
4 | CC(C)[C@H](NC(=O)c1ccc2c(c1)B(O)OC2)C(=O)OCc1ccc(F)c(F)c1 [Example 6-185, 3,4-difluorobenzyl (1-hydroxy-1,3-dihydrobenzo[c][1,2]oxaborole-6-carbonyl)-L-valinate] | – | 21 to 999 nM | –
5 | CC(C)[C@H](NC(=O)c1ccc2c(c1C(F)F)B(O)OC2)C(=O)OCc1ccccc1 [Example 6-079, Benzyl (7-(difluoromethyl)-1-hydroxy-1,3-dihydrobenzo[c][1,2]oxaborole-6-carbonyl)-L-valinate] | – | 21 to 999 nM | –
6 | Cc1c(C(=O)N[C@H](C(=O)OCc2ccccn2)C(C)(C)O)ccc2c1B(O)OC2 [Example 6-230, Pyridin-2-ylmethyl (S)-3-hydroxy-2-(1-hydroxy-7-methyl-1,3-dihydrobenzo[c][1,2]oxaborole-6-carboxamido)-3-methylbutanoate] | – | 21 to 999 nM | –
7 | Cc1c(C(=O)N[C@H](C(=O)OC[C@@H]2CCOC2)C(C)C)ccc2c1B(O)OC2 [Example 6-234, ((R)-tetrahydrofuran-3-yl)methyl (1-hydroxy-7-methyl-1,3-dihydrobenzo[c][1,2]oxaborole-6-carbonyl)-L-valinate] | – | ≤ 20 nM | –
8 | Cc1c(C(=O)N[C@H](C(=O)O[C@H](C)c2ccccc2)C(C)C)ccc2c1B(O)OC2 [Example 6-198, (R)-1-phenylethyl (1-hydroxy-7-methyl-1,3-dihydrobenzo[c][1,2]oxaborole-6-carbonyl)-L-valinate] | – | ≤ 20 nM | –
9 | Cc1c(C(=O)N[C@H](C(=O)OCCN2CCN(C)CC2)C(C)C)ccc2c1B(O)OC2 [Example 6-096, 2-(4-Methylpiperazin-1-yl)ethyl (1-hydroxy-7-methyl-1,3-dihydrobenzo[c][1,2]oxaborole-6-carbonyl)-L-valinate] | – | ≥ 1000 nM | –
10 | COC(=O)[C@H](Cc1c[nH]c2ccccc12)NC(=O)c1ccc2c(c1)B(O)OC2 [Example 6-183, Methyl (1-hydroxy-1,3-dihydrobenzo[c][1,2]oxaborole-6-carbonyl)-L-tryptophanate] | 10 to 5000 nM | – | –
11 | Cc1c(C(=O)N[C@H](C(=O)OCCN2CC3CC(C2)O3)C(C)C)ccc2c1B(O)OC2 [Example 6-231, 2-(6-oxa-3-azabicyclo[3.1.1]heptan-3-yl)ethyl (1-hydroxy-7-methyl-1,3-dihydrobenzo[c][1,2]oxaborole-6-carbonyl)-L-valinate] | – | 21 to 999 nM | –
12 | COC(=O)[C@H](Cc1ccccc1)NC(=O)c1ccc2c(c1)B(O)OC2 [Example 6-181, Methyl (1-hydroxy-1,3-dihydrobenzo[c][1,2]oxaborole-6-carbonyl)-L-phenylalaninate] | – | – | IC50 [1]: 10 to 5000 nM
13 | Cc1c(C(=O)N[C@H](C(=O)OC[C@H](O)CO)C(C)C)ccc2c1B(O)OC2 [Example 6-147, (R)-2,3-dihydroxypropyl (1-hydroxy-7-methyl-1,3-dihydrobenzo[c][1,2]oxaborole-6-carbonyl)-L-valinate] | – | ≥ 1000 nM | –
14 | Cc1c(C(=O)N[C@H](C(=O)OCc2cccnc2)C(C)C)ccc2c1B(O)OC2 [Example 6-187, Pyridin-3-ylmethyl (1-hydroxy-7-methyl-1,3-dihydrobenzo[c][1,2]oxaborole-6-carbonyl)-L-valinate] | – | ≤ 20 nM | –
15 | Cc1c(C(=O)N[C@H](C(=O)OC[C@H]2CCOC2)C(C)C)ccc2c1B(O)OC2 [Example 6-235, ((S)-tetrahydrofuran-3-yl)methyl (1-hydroxy-7-methyl-1,3-dihydrobenzo[c][1,2]oxaborole-6-carbonyl)-L-valinate] | – | ≤ 20 nM | –
16 | Cc1c(C(=O)N[C@H](C(=O)OCC2(C)CCOC2)C(C)C)ccc2c1B(O)OC2 (stereo partly drawn) [Example 6-233, (3-methyltetrahydrofuran-3-yl)methyl (1-hydroxy-7-methyl-1,3-dihydrobenzo[c][1,2]oxaborole-6-carbonyl)-L-valinate] | – | ≤ 20 nM | –
17 | CC(C)[C@H](NC(=O)c1ccc2c(c1)B(O)OC2(C)C)C(=O)OCc1ccc(F)cc1F [Example 6-034, 2,4-Difluorobenzyl (1-hydroxy-3,3-dimethyl-1,3-dihydrobenzo[c][1,2]oxaborole-6-carbonyl)-L-valinate] | 10 to 5000 nM | – | –
18 | COC(=O)[C@H](CCCc1ccccc1)NC(=O)c1ccc2c(c1)B(O)OC2 [Example 6-028, Methyl (S)-2-(1-hydroxy-1,3-dihydrobenzo[c][1,2]oxaborole-6-carboxamido)-5-phenylpentanoate] | 10 to 5000 nM | – | –
19 | COC(=O)[C@H](CC1CC1)NC(=O)c1ccc2c(c1)B(O)OC2 [Example 6-184, Methyl (S)-3-cyclopropyl-2-(1-hydroxy-1,3-dihydrobenzo[c][1,2]oxaborole-6-carboxamido)propanoate] | 10 to 5000 nM | – | –
20 | Cc1cccc(C)c1COC(=O)[C@H](C)NC(=O)c1ccc2c(c1)B(O)OC2 [Example 6-014, 2,6-Dimethylbenzyl (1-hydroxy-1,3-dihydrobenzo[c][1,2]oxaborole-6-carbonyl)-L-alaninate] | 10 to 5000 nM | – | –
21 | CC(C)(NC(=O)c1ccc2c(c1)B(O)OC2)C(=O)OCc1ccccc1 [Example 6-013, Benzyl 2-(1-hydroxy-1,3-dihydrobenzo[c][1,2]oxaborole-6-carboxamido)-2-methylpropanoate] | 10 to 5000 nM | – | –
22 | C[C@H](NC(=O)c1ccc2c(c1)B(O)OC2)C(=O)OC(C)(C)c1ccccc1 [Example 6-015, 2-Phenylpropan-2-yl (1-hydroxy-1,3-dihydrobenzo[c][1,2]oxaborole-6-carbonyl)-L-alaninate] | 10 to 5000 nM | – | –
23 | COC(=O)[C@@H](CCCc1ccccc1)NC(=O)c1ccc2c(c1)B(O)OC2 [Example 6-029, Methyl (R)-2-(1-hydroxy-1,3-dihydrobenzo[c][1,2]oxaborole-6-carboxamido)-5-phenylpentanoate] | 10 to 5000 nM | – | –
24 | Cc1cccc(C)c1OC(=O)[C@H](C)NC(=O)c1ccc2c(c1)B(O)OC2 [Example 6-001, 2,6-Dimethylphenyl (1-hydroxy-1,3-dihydrobenzo[c][1,2]oxaborole-6-carbonyl)-L-alaninate] | 10 to 5000 nM | – | –
25 | CC(C)[C@H](NC(=O)c1ccc2c(c1F)B(O)OC2)C(=O)OCc1ccc(F)cc1F [Example 6-037, 2,4-Difluorobenzyl (7-fluoro-1-hydroxy-1,3-dihydrobenzo[c][1,2]oxaborole-6-carbonyl)-L-valinate] | 10 to 5000 nM | – | –
26 | O=C(CNC(=O)c1ccc2c(c1)B(O)OC2)OCc1ccccc1 [Example 6-004, Benzyl (1-hydroxy-1,3-dihydrobenzo[c][1,2]oxaborole-6-carbonyl)glycinate] | 10 to 5000 nM | – | –
27 | Cc1c(C(=O)N[C@H](C(=O)OC2COCCOC2)C(C)C)ccc2c1B(O)OC2 [Example 6-162, 1,4-dioxepan-6-yl (1-hydroxy-7-methyl-1,3-dihydrobenzo[c][1,2]oxaborole-6-carbonyl)-L-valinate] | 0.51 to 9.99 nM | – | –
28 | O=C(OCc1ccccc1)[C@@H]1CCCN1C(=O)c1ccc2c(c1)B(O)OC2 [Example 6-012, Benzyl (1-hydroxy-1,3-dihydrobenzo[c][1,2]oxaborole-6-carbonyl)-L-prolinate] | 10 to 5000 nM | – | –
29 | C[C@@H](NC(=O)c1ccc2c(c1)B(O)OC2)C(=O)OCc1ccccc1 [Example 6-175, Benzyl (1-hydroxy-1,3-dihydrobenzo[c][1,2]oxaborole-6-carbonyl)-D-alaninate] | 10 to 5000 nM | – | –
30 | COC(=O)[C@@H](NC(=O)c1ccc2c(c1)B(O)OC2)C(C)C [Example 6-179, Methyl (1-hydroxy-1,3-dihydrobenzo[c][1,2]oxaborole-6-carbonyl)-L-valinate] | 10 to 5000 nM | – | –
